The text below walks through data of PMC3375286, “Crystal Structures Reveal the Multi-Ligand Binding Mechanism of Staphylococcus aureus ClfB” (PLoS Pathogens, 2012).

For one test, the target named is T1, ClfB(197–542) wildtype (Staphylococcus aureus, UniProt O86476).
T1 construct: The fragment of the ClfB gene (corresponding 197–542 aa) was amplified by PCR; His-tag; made in house; host or cells: E. coli BL21
T1 sequence (O86476 197-542): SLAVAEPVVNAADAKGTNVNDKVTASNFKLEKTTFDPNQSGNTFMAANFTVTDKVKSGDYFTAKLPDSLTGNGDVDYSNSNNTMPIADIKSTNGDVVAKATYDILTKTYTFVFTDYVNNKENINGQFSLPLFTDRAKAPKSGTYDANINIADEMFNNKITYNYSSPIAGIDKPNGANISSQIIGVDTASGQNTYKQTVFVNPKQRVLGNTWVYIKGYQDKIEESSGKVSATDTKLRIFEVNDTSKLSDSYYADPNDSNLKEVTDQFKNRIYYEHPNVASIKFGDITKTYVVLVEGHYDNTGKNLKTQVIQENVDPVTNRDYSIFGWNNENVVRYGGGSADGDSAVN
The experiment in a line: SPR (ProteOn XPR36) binding of ClfB(197–542) wild type to immobilized peptide 15 from Dermokine. To be noted: SPR ProteOn XPR36, peptide captured on NLC Sensor Chip (460 RU), 25°C, 10 mM HEPES pH 7.2, 150 mM NaCl; ClfB(197–542) injected at 87.5-700 µM; repeated three times; read-out: dissociation constant (KD). How it is done: Firstly, Derm was tested for its interaction with ClfB. To this end, we synthesized a 15-amino-acid-peptide (250–264; […], designated as Derm15 hereafter) derived from Derm and then characterized its binding to ClfB using the SPR (Surface Plasmon Resonance) assay. In the assay, ClfB bound to the peptide with a dissociation constant of 2.37 µM (Figure 7A). […] To understand the molecular mechanism underlying this interaction, we solved the crystal structure of ClfB(208–542) bound to the peptide at 2.5 Å resolution. As expected, Derm15 interacts with ClfB in a nearly identical manner with Fg α(316–328) and CK10(499–512) (Figure 7 B). The ClfB^Arg529 forms a hydrogen bond with […] and the C-terminus of N3 forms an extra strand, which is similar as that in the ClfB-Fg α(316–328) and ClfB-CK10(499–512) complexes (Figure 7 C). Mutagenesis studies were conducted to further verify the binding of Derm15 to ClfB. We replaced the residues ClfB^S236, W522 that participate in interactions with the peptide with alanine respectively. The mutant proteins were purified to homogeneity and tested for their interaction with the Derm peptide using SPR.
Figure 7 Dermokine is a potential ligand of ClfB. […] Red, 700 µM; blue, 350 µM; green, 87.5 µM. […]
Binding of ClfB(197–542) to peptide 15 was assessed by SPR using the ProteOn XPR36 equipment (Bio-Rad Laboratories, Inc.). […]

The target in a further test is T2, ClfB (Staphylococcus aureus, UniProt O86476).
T2 construct: The fragment of the ClfB gene (corresponding 197–542 aa) was amplified by PCR; His-tag; made in house; host or cells: E. coli BL21
T2 sequence (O86476 197-542): T1 sequence (O86476 197-542)
The experiment in a line: SPR (BIAcore T200) alanine scan of 9-residue GSR peptides and the 6-residue peptide on immobilized ClfB. The class given is binding. To be noted: SPR BIAcore T200, 10°C; ClfB amine-coupled (~5300 RU) on CM5 chip; peptides 31.25-2000 µM in 10 mM HEPES pH 7.4, 150 mM NaCl, 0.005% Tween 20; 30 µl/min; 1:1 Langmuir fit. The procedure:
A. Panel of dermokine peptides. […] Navy, 2000 µM; Magenta, 1000 µM; Dark cyan or dark yellow, 500 µM; Blue, 250 µM; Red, 125 µM; Green, 62.5 µM; Black, 31.25 µM.
The binding affinities between ClfB and the ten 9-amino–acid peptides and the 6-amino-acid peptide were determined by surface plasmon resonance (SPR) using BIAcore T200 instrument (GE Healthcare) at 10°C. The ClfB protein was immobilized to about 5300 Response Unit (RU) on a research-grade CM5 sensor chip in 10 mM sodium acetate, pH 5.0 by standard amine coupling method. The flow cell 1 was left blank as a reference. […] The ligands were allowed to associate for 60 s and dissociate for 120 s. Data were analyzed with the BIAcore T200 evaluation software by fitting to a 1∶1 Langmuir binding fitting model.

The target in another test is T3, Dermokine (Homo sapiens).
T3 chain: SQSGSSGSGSNGDNN
The experiment in a line: SPR.

Where no end group is shown, it is not given here.

Take GQSGSSGSGSNGDNN [Derm15]: the Kd at ClfB(197–542) wildtype worked out at 2370 nM. Turning to GSSGSGANG [Peptide8], the Kd at ClfB is 326 µM. Still for that read-out and setting: the result for GSSGSGSNA [Peptide10] reads 1170 µM. On the same count and under the same terms, under GSSGAGSNG [Peptide6] stands 195 µM. Same read-out and setting: the result for ASSGSGSNG [Peptide2] reads 1600 µM. At ClfB, GSAGSGSNG [Peptide4] returned a Kd of 502 µM.

GSSGSG [Peptide11] gave a Kd on ClfB of 833 µM. On the same count and under the same terms, the result for GSSASGSNG [Peptide5] reads 1140 µM; that for GSSGSASNG [Peptide7], 1610 µM; that for GSSGSGSAG [Peptide9], 403 µM.

GASGSGSNG [Peptide3] came in with a Kd on ClfB of 1240 µM.

B1: Clumping factor B 197-542 (protein)
chain: SLAVAEPVVNAADAKGTNVNDKVTASDFKLEKTAFDPNQSGNTFMAANFKVTGQVKSGDYFTAKLPDSVTGNGDVDYSNSNNTMPIADIKSTNGDVVAKATYDILTKTYTFVFTDYVNDKENINGQFSLPLFTDRAKAPKSGTYDANINIADEMFDNKITYNYSSPIAGIDKPNGANISSQIIGVDTASGQNTYKQTVFVNPKQRVLGNTWVYIKGYQDKIEESSGKVSATDTKLRIFEVNDTSKLSDSYYADPNDSNLKEVTGEFKDKISYKYDNVASINFGDINKTYVVLVEGHYDNTGKNLKTQVIQENIDPATGKDYSIFGWNNENVVRYGGGSADGDSAVN
In the case of B1, the affinity with Dermokine, expressed as Kd, was 2370 nM.

Usually Kd stands for a measure of binding affinity in units of concentration.
